The structures appear in SMILES notation.

In general, Ki refers to the dissociation constant of the complex between target and ligand, obtained from inhibition or displacement. Read a low Ki as tighter binding. For orientation: inhibition means the relative decrease from the control value, in per cent.

One assay deals with CDK2 (human) (UniProt P24941). As to the kind of experiment: Enzyme Assay.
Conditions: not given
Regarding `CN(CCN)c1ccc(S(=O)(=O)N2CCC(Nc3nc(N)c(C(=O)c4c(F)cccc4F)s3)CC2)cn1`, the Ki came to 4.9 nM.

Still in this assay, the particulars now being: concentration not given here.
As to `CC(C)[C@@H]1CC[C@@H](C)C[C@H]1OC(=O)N1CCC(Nc2nc(N)c(C(=O)c3c(F)cccc3F)s2)CC1`, the inhibition is -45%.
Take `[N-]=[N+]=C1C=C(S(=O)(=O)N2CCC(Nc3nc(N)c(C(=O)c4c(F)cccc4F)s3)CC2)c2ccccc2C1=O`: the inhibition was -11%.
Still for that read-out and setting: the same measure for `Nc1nc(NC2CCN(C(=O)/C=C/c3cccc(F)c3F)CC2)sc1C(=O)c1c(F)cccc1F`: 51%.
As for `CCCCc1ccc(C(=O)N2CCC(Nc3nc(N)c(C(=O)c4c(F)cccc4F)s3)CC2)nc1`, the inhibition was -45%.
Turning to `C=CCC(=O)N1CCC(Nc2nc(N)c(C(=O)c3c(F)cccc3F)s2)CC1`, the inhibition stood at 15%.
As to `N#Cc1ccc(NCC(=O)N2CCC(Nc3nc(N)c(C(=O)c4c(F)cccc4F)s3)CC2)cc1`, the inhibition was determined as 22%.
Consider `COc1ccc(C(=O)N2CCC(Nc3nc(N)c(C(=O)c4c(F)cccc4F)s3)CC2)cc1Cl`, for which the inhibition amounted to 47%.
As for `Nc1nc(NC2CCN(C(=O)C(=O)c3c[nH]c4ccccc34)CC2)sc1C(=O)c1c(F)cccc1F`, the inhibition is -31%.
`CCOc1ccccc1CC(=O)N1CCC(Nc2nc(N)c(C(=O)c3c(F)cccc3F)s2)CC1`: the inhibition was found to be 71%.
As for `Cc1cccc(C(=O)N2CCC(Nc3nc(N)c(C(=O)c4c(F)cccc4F)s3)CC2)n1`, the inhibition is 60%.
Consider `Nc1nc(NC2CCN(C(=O)C(O)c3c(F)cccc3F)CC2)sc1C(=O)c1c(F)cccc1F` (stereo not given), for which the inhibition amounted to 54%.
On to `Nc1nc(NC2CCN(C(=O)c3ccc4ccccc4c3)CC2)sc1C(=O)c1c(F)cccc1F`, for which the inhibition was found to be 38%.
As to `COc1ncccc1C(=O)N1CCC(Nc2nc(N)c(C(=O)c3c(F)cccc3F)s2)CC1`, the inhibition came out at 40%.
Consider `COc1cccc(CC(=O)N2CCC(Nc3nc(N)c(C(=O)c4c(F)cccc4F)s3)CC2)c1OC`, for which the inhibition was 70%.
Regarding `Nc1nc(NC2CCN(C(=O)C(CO)c3ccccc3)CC2)sc1C(=O)c1c(F)cccc1F` (stereo not given), the inhibition was found to be 57%.
Consider `C[C@H]1CC[C@H](C(=O)N2CCC(Nc3nc(N)c(C(=O)c4c(F)cccc4F)s3)CC2)CC1`, for which the inhibition stood at 65%.
With `Nc1nc(NC2CCN(C(=O)c3ccc4ccccc4n3)CC2)sc1C(=O)c1c(F)cccc1F`, the inhibition came out at 9%.
The same measure, in the same setting: the same measure for `Nc1nc(NC2CCN(C(=O)/C=C/c3cc(F)ccc3F)CC2)sc1C(=O)c1c(F)cccc1F`: 81%; for `Cc1ccc(C(=O)N2CCC(Nc3nc(N)c(C(=O)c4c(F)cccc4F)s3)CC2)cn1`: 20%; for `Nc1nc(NC2CCN(C(=O)Oc3ccc(F)cc3)CC2)sc1C(=O)c1c(F)cccc1F`: 47%.
Regarding `Nc1nc(NC2CCN(C(=O)CC3CCCCC3)CC2)sc1C(=O)c1c(F)cccc1F`, the inhibition was -5%.
With `CCC(O)(CC)C(=O)N1CCC(Nc2nc(N)c(C(=O)c3c(F)cccc3F)s2)CC1`, the inhibition came out at 17%.
`Nc1nc(NC2CCN(C(=O)Cc3ccncc3)CC2)sc1C(=O)c1c(F)cccc1F`: the inhibition is 17%.
The same measure, in the same setting: the same measure for `COc1ccc2oc(C(=O)N3CCC(Nc4nc(N)c(C(=O)c5c(F)cccc5F)s4)CC3)cc2c1`: 61%; for `Nc1nc(NC2CCN(C(=O)c3csnn3)CC2)sc1C(=O)c1c(F)cccc1F`: 68%.
On the same count and under the same terms, the same measure for `CSc1ncccc1C(=O)N1CCC(Nc2nc(N)c(C(=O)c3c(F)cccc3F)s2)CC1`: 33%; for `CO[C@@H](C(=O)N1CCC(Nc2nc(N)c(C(=O)c3c(F)cccc3F)s2)CC1)c1ccccc1`: 54%; for `CC(C)=CC1C(C(=O)N2CCC(Nc3nc(N)c(C(=O)c4c(F)cccc4F)s3)CC2)C1(C)C` (stereo not given): 10%.
On the same count and under the same terms, the same measure for `Cc1ccc(OCC(=O)N2CCC(Nc3nc(N)c(C(=O)c4c(F)cccc4F)s3)CC2)cc1`: 57%; for `Cc1ccc(OCC(=O)N2CCC(Nc3nc(N)c(C(=O)c4c(F)cccc4F)s3)CC2)c(C)c1`: 51%.
For the compound `NC(=S)Nc1ccc(C(=O)N2CCC(Nc3nc(N)c(C(=O)c4c(F)cccc4F)s3)CC2)cc1`, the inhibition was determined as 73%.
Consider `COc1ccc(C(=O)N2CCC(Nc3nc(N)c(C(=O)c4c(F)cccc4F)s3)CC2)c(OC)c1`, for which the inhibition was -11%.
For `Cn1c(C(=O)N2CCC(Nc3nc(N)c(C(=O)c4c(F)cccc4F)s3)CC2)cc2ccccc21`, the inhibition was 61%.
As to `CC(C)c1ccc(/C=C/C(=O)N2CCC(Nc3nc(N)c(C(=O)c4c(F)cccc4F)s3)CC2)cc1`, the inhibition was 52%.
On to `Nc1nc(NC2CCN(C(=O)c3cc(F)cc(F)c3)CC2)sc1C(=O)c1c(F)cccc1F`, for which the inhibition amounted to 80%.
The same measure, in the same setting: the same measure for `Nc1nc(NC2CCN(C(=O)/C=C/c3ccncc3)CC2)sc1C(=O)c1c(F)cccc1F`: 80%; for `Nc1nc(NC2CCN(C(=O)[C@@H]3CCC(=O)O3)CC2)sc1C(=O)c1c(F)cccc1F`: 95%; for `Cc1ccc(F)cc1C(=O)N1CCC(Nc2nc(N)c(C(=O)c3c(F)cccc3F)s2)CC1`: 52%.
For the compound `C=CCSc1ncccc1C(=O)N1CCC(Nc2nc(N)c(C(=O)c3c(F)cccc3F)s2)CC1`, the inhibition was found to be 48%.
The same measure, in the same setting: the same measure for `CCCCC(O)C(=O)N1CCC(Nc2nc(N)c(C(=O)c3c(F)cccc3F)s2)CC1` (stereo not given): 16%; for `COCCOCC(=O)N1CCC(Nc2nc(N)c(C(=O)c3c(F)cccc3F)s2)CC1`: 73%; for `CCCOc1ccc(C(=O)N2CCC(Nc3nc(N)c(C(=O)c4c(F)cccc4F)s3)CC2)cc1`: 77%.
Consider `COc1cc(N)ccc1/C=C/C(=O)N1CCC(Nc2nc(N)c(C(=O)c3c(F)cccc3F)s2)CC1`, for which the inhibition was 56%.
For `CC(=O)SC[C@@H](C)C(=O)N1CCC(Nc2nc(N)c(C(=O)c3c(F)cccc3F)s2)CC1`, the inhibition amounted to 46%.
Take `Nc1nc(NC2CCN(C(=O)c3ccc4c(c3)C(=O)OC4=O)CC2)sc1C(=O)c1c(F)cccc1F`: the inhibition was found to be 53%.
For the compound `Nc1nc(NC2CCN(C(=O)/C=C/c3ccccc3Cl)CC2)sc1C(=O)c1c(F)cccc1F`, the inhibition came out at 83%.
Same read-out and setting: the same measure for `Nc1nc(NC2CCN(C(=O)c3ccc(F)c(Cl)c3)CC2)sc1C(=O)c1c(F)cccc1F`: 48%.
Still for that read-out and setting: the same measure for `Nc1nc(NC2CCN(C(=O)Cc3c[nH]c4ccc(F)cc34)CC2)sc1C(=O)c1c(F)cccc1F`: 66%.
For `COc1c(C)cccc1C(=O)N1CCC(Nc2nc(N)c(C(=O)c3c(F)cccc3F)s2)CC1`, the inhibition is 10%.
Same read-out and setting: the same measure for `Nc1nc(NC2CCN(C(=O)/C=C/c3ccccc3O)CC2)sc1C(=O)c1c(F)cccc1F`: 74%.
On to `CC(C)Oc1ccc(C(=O)N2CCC(Nc3nc(N)c(C(=O)c4c(F)cccc4F)s3)CC2)cc1`, for which the inhibition was found to be 19%.
As to `CC1CCC(C(=O)N2CCC(Nc3nc(N)c(C(=O)c4c(F)cccc4F)s3)CC2)CC1` (stereo not given), the inhibition was 59%.
Consider `Nc1nc(NC2CCN(C(=O)CCOc3ccc(F)cc3)CC2)sc1C(=O)c1c(F)cccc1F`, for which the inhibition worked out at 61%.
Still for that read-out and setting: the same measure for `CN(C)C(=O)N1CCC(Nc2nc(N)c(C(=O)c3c(F)cccc3F)s2)CC1`: -43%; for `CC/C=C/CC(=O)N1CCC(Nc2nc(N)c(C(=O)c3c(F)cccc3F)s2)CC1`: 46%; for `Nc1nc(NC2CCN(C(=O)/C=C/c3ccc(O)cc3)CC2)sc1C(=O)c1c(F)cccc1F`: 66%.
As for `COc1ccc(OC)c(CC(=O)N2CCC(Nc3nc(N)c(C(=O)c4c(F)cccc4F)s3)CC2)c1`, the inhibition was 57%.
Turning to `Nc1nc(NC2CCN(C(=O)C3(c4ccccc4)CC3)CC2)sc1C(=O)c1c(F)cccc1F`, the inhibition is -2%.
On to `CCCCCCCC(=O)N1CCC(Nc2nc(N)c(C(=O)c3c(F)cccc3F)s2)CC1`, for which the inhibition was found to be 53%.
Take `Nc1nc(NC2CCN(C(=O)OCC3c4ccccc4-c4ccccc43)CC2)sc1C(=O)c1c(F)cccc1F`: the inhibition is -12%.
Take `Nc1nc(NC2CCN(C(=O)C3CCOC3)CC2)sc1C(=O)c1c(F)cccc1F` (stereo not given): the inhibition was determined as 81%.
For the compound `CO[C@](C(=O)N1CCC(Nc2nc(N)c(C(=O)c3c(F)cccc3F)s2)CC1)(c1ccccc1)C(F)(F)F`, the inhibition is -29%.
As to `Nc1nc(NC2CCN(C(=O)/C=C/c3ccccc3F)CC2)sc1C(=O)c1c(F)cccc1F`, the inhibition worked out at 71%.
Consider `CCC(C)C(C(=O)N1CCC(Nc2nc(N)c(C(=O)c3c(F)cccc3F)s2)CC1)c1ccccc1` (stereo not given), for which the inhibition came out at 49%.
Take `Nc1nc(NC2CCN(C(=O)C3COc4ccccc4O3)CC2)sc1C(=O)c1c(F)cccc1F` (stereo not given): the inhibition was 58%.
Take `CC/C=C\CC(=O)N1CCC(Nc2nc(N)c(C(=O)c3c(F)cccc3F)s2)CC1`: the inhibition was 85%.
The same measure, in the same setting: the same measure for `Nc1nc(NC2CCN(C(=O)CC3CCCC3)CC2)sc1C(=O)c1c(F)cccc1F`: -20%; for `CC[C@@H](C(=O)N1CCC(Nc2nc(N)c(C(=O)c3c(F)cccc3F)s2)CC1)c1ccccc1`: 41%; for `COc1cccc2cc(C(=O)N3CCC(Nc4nc(N)c(C(=O)c5c(F)cccc5F)s4)CC3)oc12`: 77%.
`CCOC(=O)N1CCC(Nc2nc(N)c(C(=O)c3c(F)cccc3F)s2)CC1`: the inhibition is -13%.
Turning to `Nc1nc(NC2CCN(C(=O)CCCN3C(=O)C=CC3=O)CC2)sc1C(=O)c1c(F)cccc1F`, the inhibition is 43%.
In the case of `CCCCC[C@H]1CC[C@H](C(=O)N2CCC(Nc3nc(N)c(C(=O)c4c(F)cccc4F)s3)CC2)CC1`, the inhibition is 14%.
For `C/C=C/CCC(=O)N1CCC(Nc2nc(N)c(C(=O)c3c(F)cccc3F)s2)CC1`, the inhibition came to 71%.
Consider `CC(=O)CCCCC(=O)N1CCC(Nc2nc(N)c(C(=O)c3c(F)cccc3F)s2)CC1`, for which the inhibition stood at 49%.
Still for that read-out and setting: the same measure for `Nc1nc(NC2CCN(C(=O)Cc3ccc4c(c3)OCO4)CC2)sc1C(=O)c1c(F)cccc1F`: 39%.
Take `N#C/C(=C\c1cccc(O)c1)C(=O)N1CCC(Nc2nc(N)c(C(=O)c3c(F)cccc3F)s2)CC1`: the inhibition worked out at 84%.
Same read-out and setting: the same measure for `CCCCOc1ccc(C(C)(C)CC(C)(C)C)cc1S(=O)(=O)N1CCC(Nc2nc(N)c(C(=O)c3c(F)cccc3F)s2)CC1`: -28%; for `CC(=O)C(O)(C(=O)N1CCC(Nc2nc(N)c(C(=O)c3c(F)cccc3F)s2)CC1)c1ccccc1` (stereo not given): 26%.
Regarding `CCC(C)(O)C(=O)N1CCC(Nc2nc(N)c(C(=O)c3c(F)cccc3F)s2)CC1` (stereo not given), the inhibition worked out at 25%.

Values taken from the Kinase Knowledgebase extract (Sharma et al. 2016).
